From patent US20070048356A1, “Antimicrobial treatment of nonwoven materials for infection control” (priority 2005, published 2007)

Assays:
[1] = system: broad spectrum of microorganism (gram positive and gram negative bacteria, and fungi: mold and yeast); conditions: within 15 minutes; baseline data of Tables 12-15
Description: The experimental procedure is based on ASTM E 2149-01. In brief, the test is performed by first adding a 2″×2″ sample of treated material to a flask containing 50 mL of a buffered-saline solution. The flask is then inoculated with the challenge organism (6.5-7 log10 total) and shaken through mechanical means for a designated period of time. At specified time points, a sample of the solution is then removed and plated. Lastly, the plate is incubated, examined for microbial growth, and the number of colony forming units counted. The log reduction in organisms is measured by comparing the growth on the experimental plate to control plates with no antimicrobial treatment.

[2] = system: Staphylococcus aureus (ATCC #27660); experiment: Rapid Germicidal Time Kill on treated gloves; assay type: cell-based; conditions: for log reduction of organisms: nitrile gloves, versus applied organisms estimated from latex control
Text: In another aspect, to assess the efficacy of how rapidly the applied antimicrobial agents kill, we employed a direct contact, rapid germicidal test, developed by Kimberly-Clark Corporation. This test better simulates real world working situations in which microbes are transferred from a substrate to glove through direct contacts of short duration. Also this test permits us to assess whether contact with the surface of the glove at one position will quickly kill microbes, whereas the solution-based testing of the ASTM E 2149-01 protocol tends to provide multiple opportunities to contact and kill the microbes, which less realistic in practice.
We applied an inoculum of a known amount of microbes to the antimicrobial-treated surface of a glove. After about 3-6 minutes, we assessed the number of microbes that remained on the surface of the treated glove. […] The concentration of organisms on the surface is given at an initial Zero Time point and at 3, 5, and 30 minute points.
To test the antimicrobial efficacy of a polyhexamethylene biguanide, we treated nitrile examination gloves according to ASTM protocol 04-123409-106 “Rapid Germicidal Time Kill.” In brief, about 50 μL of an overnight culture of Staphylococcus aureus (ATCC #27660, 5×10^8CFU/mL) was applied to the glove material. After a total contact time of about 6 minutes the glove fabric was placed into a neutralizing buffer. Surviving organisms were extracted and diluted in Letheen broth. Aliquots were spread plated on Tryptic Soy Agar plates. Plates were incubated for 48 hours at 35° C. Following incubation the surviving organisms were counted and the colony forming units (CFU) were recorded. The reduction (log10) in surviving organisms from test material versus control fabric was calculated: Log10 CFU/swatch Control−Log10 CFU/swatch Test Article=Log10 Reduction.

[3] = system: P. aeruginosa (ATCC 9027); experiment: Dynamic Shake Flask (based on ASTM E 2149-01) on treated nonwoven; assay type: cell-based
Description: (§1) The test organisms are grown in 25 mL appropriate broth medium for about 24±2 hours at 37±2° C. in a wrist action shaker. The bacterial culture is then transferred by placing about 100 μL aliquot in 25 mL of broth and grown again for about 24±2 hours at 37±2° C. The organisms are then centrifuged and washed three times with phosphate buffered saline (PBS). The organisms are then suspended in PBS to obtain an inoculum of approximately 1×10^8 CFU/mL.
(§2) The test articles and control swatches are exposed to an ultraviolet light source for about 5-10 minutes per side before testing to assure that the swatches are sanitized prior to inoculation with the bacteria. The test materials are brought into contact with a known population of test bacteria from the inoculum for a specified period of time. A sample is then plated at the end of the exposure time to enumerate the surviving bacteria. The log10 reduction form the control material and the original population is calculated using the following formula: Log10 Control*−Log10 CFU/swatch Test Article=Log10 Reduction
[…] This buffer solution contains a chemical to de-activate or “neutralize” the antimicrobial agent to (a) stop the active agent from killing the organisms after the designated time period and (b) to prevent artifacts that may arise from exposing the microorganisms to the antimicrobial in solution rather than solely on the substrate. Because each chemical used as an antimicrobial agent is a little different (ie: cationic, nonionic, metal, etc), a different neutralizer was likely added in each case to shut off the antimicrobial at the desired end point of the experiment. […] The neutralizer employed may be selected from a list that is commonly used in the field. […] Testing Mat.

C. Albicans (ATCC 10231) = experiment: as above; assay type: cell-based; conditions: Table 15, SMS
A. Niger (ATCC 16404) = experiment: as above; assay type: cell-based; conditions: Table 14, Spunbond
Description: as §1, §2
[…] This buffer solution contains a chemical to de-activate or “neutralize” the antimicrobial agent to (a) stop the active agent from killing the organisms after the designated time period and (b) to prevent artifacts that may arise from exposing the microorganisms to the antimicrobial in solution rather than solely on the substrate. Because each chemical used as an antimicrobial agent is a little different (ie: cationic, nonionic, metal, etc), a different neutralizer was likely added in each case to shut off the antimicrobial at the desired end point of the experiment. […] The neutralizer employed may be selected from a list that is commonly used in the field. These include, non-ionic degtergents, Bisulphate, lecithin, leethen broth, thiosulfate, thioglycolate, and pH buffers, Method similar to those described in American Society for Testing and Materials, Standard Practices for Evaluating Inactivators of Antimicrobial Agents Used in Disinfectant, Sanitizer, Antiseptic, or Preserved Products, Amer. Soc. Testing Mat. E 1054-91 (1991) can be used.

S. aureus = experiment: Zone of inhibition test to measure leaching; assay type: cell-based; conditions: AATCC 147 and ASTM E 2149-01 protocols
Description: First, according to the American Association of Textile Chemists and Colorists (AATCC)-147 test protocol, in a dry-leaching test, the antimicrobial treated material is placed in an agar plate seeded with a known amount of organism population on the plate surface. The plate is then incubated for about 18-24 hours at about 35° C. or 37° C.±2° C. Afterwards, the agar plate is assessed. Any leaching of the antimicrobial from the treated material would result in a zone of inhibited microbial growth. […] The piece of material was allowed to sit for 24 hours in solution and then the supernatant of the solution was extracted. […] About 100 micro liters (μL) of supernatant is added to a 8 mm well cut into a seeded agar plate and allow to dry. […] In summary, these protocols are performed by incubating an inoculated plate containing either the actual treated material or a solution that has been exposed to the treated material. This plate is then analyzed for zones of inhibition of organism growth to detect if the antimicrobial has leached off of the material or into the solution.

[4] = Table 25, nitrile glove samples, Inoculum: 8.08

Polyhexamethylene biguanide [PHMB]
log10 reduction in colony forming units (CFU) [1]: ≥ 3 log10
Result (Log10 Reduction, test material versus control) ([2]; Table 23, microtextured nitrile glove, total contact time about 6 minutes): >4.7 log10
Result (Log10 Reduction versus PFE control) ([2]; Table 24, latex glove samples, total contact time about 6 minutes): >5.83 log10
Result (log reduction of test glove compared to control glove) [2, 4]: >1.85 log
Result (log reduction of test glove compared to control glove), class [2, 4]: NR (No Reduction = less than 0.5 log reduction of test glove compared to control glove.)
log reduction of Staphylococcus aureus ATCC 27660 ([2]; microtextured nitrile glove, machine applied at 0.03 g/glove): greater than four
log reduction of organisms ([2]; hand sprayed with no heat): greater than one
log reduction of organisms ([2]; machine sprayed under heated conditions): greater than 5 log
Dynamic Shake Flask Log10 Reduction ([3]; Table 13, Meltblown, contact time 1 min): 4 Log10
Dynamic Shake Flask Log10 Reduction ([3]; Table 13, Meltblown, contact time 5 min): 4 Log10
Dynamic Shake Flask Log10 Reduction ([3]; Table 13, Meltblown, contact time 15 min): 4 Log10
Dynamic Shake Flask Log10 Reduction ([3]; Table 13, SMS, contact time 1 min): 4 Log10
Dynamic Shake Flask Log10 Reduction ([3]; Table 13, SMS, contact time 5 min): 4 Log10
Dynamic Shake Flask Log10 Reduction ([3]; Table 13, SMS, contact time 15 min): 4 Log10
Dynamic Shake Flask Log10 Reduction ([3]; Table 13, Spunbond, contact time 1 min): 4 Log10
Dynamic Shake Flask Log10 Reduction ([3]; Table 13, Spunbond, contact time 5 min): 4 Log10
Dynamic Shake Flask Log10 Reduction ([3]; Table 13, Spunbond, contact time 15 min): 4 Log10
Dynamic Shake Flask Log10 Reduction ([3]; Table 18, Spunbond substrate, contact time 1 min): 0.07 Log10
Dynamic Shake Flask Log10 Reduction ([3]; Table 18, Spunbond substrate, contact time 5 min): 0.12 Log10
Dynamic Shake Flask Log10 Reduction ([3]; Table 18, Spunbond substrate, contact time 15 min): 0.34 Log10
Dynamic Shake Flask Log10 Reduction ([3]; Table 20, SMS substrate, contact time 1 min): 0.07 Log10
Dynamic Shake Flask Log10 Reduction ([3]; Table 20, SMS substrate, contact time 5 min): 0.12 Log10
Dynamic Shake Flask Log10 Reduction ([3]; Table 20, SMS substrate, contact time 15 min): 0.34 Log10
Dynamic Shake Flask Log10 Reduction (C. Albicans (ATCC 10231); contact time 1 min): 1.28 Log10
Dynamic Shake Flask Log10 Reduction (C. Albicans (ATCC 10231); contact time 5 min): 2.38 Log10
Dynamic Shake Flask Log10 Reduction (C. Albicans (ATCC 10231); contact time 15 min): 3.48 Log10
Dynamic Shake Flask Log10 Reduction (A. Niger (ATCC 16404); contact time 1 min): 4.00 Log10
Dynamic Shake Flask Log10 Reduction (A. Niger (ATCC 16404); contact time 5 min): 4.00 Log10
Dynamic Shake Flask Log10 Reduction (A. Niger (ATCC 16404); contact time 15 min): 4.00 Log10
zones of inhibition / leaching from the treated substrate (S. aureus): does not leach
